Measurements as given in paper PMC2940852 (Biochemical pharmacology, 2010).

Legend:
placental tissue [1] = experiment: Placental viability and functional parameters during perfusion; design: species or system human; settings: OH-bupropion 470 ng/ml, 4 hours, compared with control placentas
placental tissue [2] = experiment: Metabolism by placental tissue during perfusion; assay type: in vitro ADME, human; settings: 4 hours of perfusion; maternal and fetal perfusate and placental tissue
P-gp [3] = target: T1, P-gp (Homo sapiens, UniProt P08183); settings: human placenta brush border membrane IOVs
[4] = test system: dually-perfused human placental lobule; experiment: Transplacental transfer, dual perfusion of human placental lobule; assay type: in vitro ADME; settings: 4 hours perfusion, closed-closed
BCRP [5] = target: T2, BCRP (Homo sapiens, UniProt Q9UNQ0); settings: human placenta brush border membrane IOVs
T2 sequence (Q9UNQ0 1-655): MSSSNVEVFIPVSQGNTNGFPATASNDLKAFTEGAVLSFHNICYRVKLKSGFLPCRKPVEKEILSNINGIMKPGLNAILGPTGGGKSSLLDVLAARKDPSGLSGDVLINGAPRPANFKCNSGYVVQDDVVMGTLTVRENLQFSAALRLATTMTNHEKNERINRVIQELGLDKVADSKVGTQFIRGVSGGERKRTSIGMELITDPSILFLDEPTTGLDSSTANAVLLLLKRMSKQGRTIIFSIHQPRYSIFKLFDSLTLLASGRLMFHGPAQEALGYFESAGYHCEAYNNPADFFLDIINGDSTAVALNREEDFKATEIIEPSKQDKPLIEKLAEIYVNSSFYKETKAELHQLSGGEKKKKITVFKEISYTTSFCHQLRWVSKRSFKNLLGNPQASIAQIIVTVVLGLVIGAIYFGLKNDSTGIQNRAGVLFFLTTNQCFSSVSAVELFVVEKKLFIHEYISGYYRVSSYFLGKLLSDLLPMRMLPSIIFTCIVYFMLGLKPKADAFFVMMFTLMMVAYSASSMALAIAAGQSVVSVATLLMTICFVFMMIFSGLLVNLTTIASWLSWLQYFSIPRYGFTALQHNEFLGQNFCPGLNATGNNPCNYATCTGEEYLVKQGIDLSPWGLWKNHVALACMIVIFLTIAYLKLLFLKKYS

[6] = test system: dually-perfused human placental lobule; settings: human placenta; cited from earlier work
P-gp [7] = target: T1, P-gp; experiment: Stimulation of P-gp ATPase activity; assay type: biochemical; settings: insect cell membranes transfected with human P-gp
BCRP [8] = target: T2, BCRP; experiment: Stimulation of BCRP ATPase activity; assay type: biochemical; settings: insect cell membranes transfected with human BCRP

T1 sequence (P08183 whole entry, the tested form may be a part): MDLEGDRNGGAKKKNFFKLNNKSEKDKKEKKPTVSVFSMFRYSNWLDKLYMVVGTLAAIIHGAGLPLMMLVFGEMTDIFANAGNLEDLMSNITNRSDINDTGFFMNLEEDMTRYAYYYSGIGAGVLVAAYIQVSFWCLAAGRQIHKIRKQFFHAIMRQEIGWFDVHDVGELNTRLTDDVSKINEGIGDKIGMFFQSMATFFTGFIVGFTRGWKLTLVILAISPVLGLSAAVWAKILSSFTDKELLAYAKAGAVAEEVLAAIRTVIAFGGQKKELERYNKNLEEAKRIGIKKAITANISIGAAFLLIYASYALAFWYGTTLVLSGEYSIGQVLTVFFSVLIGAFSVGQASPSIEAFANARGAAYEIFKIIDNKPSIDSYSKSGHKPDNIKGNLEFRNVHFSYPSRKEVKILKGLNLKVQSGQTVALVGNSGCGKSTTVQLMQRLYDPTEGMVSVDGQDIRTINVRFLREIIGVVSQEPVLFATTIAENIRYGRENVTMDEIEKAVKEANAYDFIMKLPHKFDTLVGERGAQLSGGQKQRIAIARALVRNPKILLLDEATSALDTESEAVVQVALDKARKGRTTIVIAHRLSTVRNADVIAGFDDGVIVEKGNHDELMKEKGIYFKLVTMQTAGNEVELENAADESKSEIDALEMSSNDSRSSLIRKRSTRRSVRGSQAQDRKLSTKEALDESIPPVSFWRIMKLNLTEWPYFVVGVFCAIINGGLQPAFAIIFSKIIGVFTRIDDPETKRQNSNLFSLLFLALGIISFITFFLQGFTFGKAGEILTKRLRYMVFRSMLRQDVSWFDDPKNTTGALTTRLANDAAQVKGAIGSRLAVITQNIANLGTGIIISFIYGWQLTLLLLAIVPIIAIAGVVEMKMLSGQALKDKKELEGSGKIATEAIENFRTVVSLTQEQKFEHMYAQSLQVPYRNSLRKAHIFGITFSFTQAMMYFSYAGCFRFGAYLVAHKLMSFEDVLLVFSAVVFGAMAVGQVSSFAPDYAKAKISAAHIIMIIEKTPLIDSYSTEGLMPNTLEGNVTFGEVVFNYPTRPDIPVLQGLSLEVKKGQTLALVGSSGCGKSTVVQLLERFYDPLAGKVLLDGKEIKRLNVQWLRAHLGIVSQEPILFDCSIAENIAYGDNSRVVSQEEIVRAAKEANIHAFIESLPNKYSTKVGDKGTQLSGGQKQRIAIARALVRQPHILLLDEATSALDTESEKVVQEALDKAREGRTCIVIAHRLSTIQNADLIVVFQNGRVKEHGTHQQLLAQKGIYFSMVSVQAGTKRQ

Compound: C[C@H]1NC(C)(C)CO[C@]1(O)c1cccc(Cl)c1 [OH-bupropion, hydroxybupropion]
- Placental viability and functional parameters during perfusion (placental tissue [1]): unchanged
- Biotransformation by placental enzymes during perfusion (placental tissue [2]): without undergoing biotransformation
- Transported substrate of P-gp (P-gp [3]): not a transported substrate
- Fetal circuit concentration as % of initial concentration in maternal circuit [4]: 32 ± 3%
- Concentration in the fetal circuit at the end of the experimental period ([4]; initial maternal concentration 470 ± 17 ng/ml): 151 ± 13 ng/mL
- Transported substrate of BCRP (BCRP [5]): not a transported substrate

Compound: Cc1cc(=O)n(-c2ccccc2)n1C [antipyrine]
- Placental transfer (freely-diffusible compounds) [6]: 30–40%

Compound: CC(NC(C)(C)C)C(=O)c1cccc(Cl)c1 (stereo not shown) [bupropion]
- Vmax of stimulation of ATPase activity by P-gp (P-gp [7]): 9.5 ± 1.6 nmoles Pi/mg protein*min
- Vmax of stimulation of ATPase activity by BCRP (BCRP [8]): 6 ± 0.8 nmoles Pi/mg protein*min

Compound: CN1CCC[C@H]1c1cccnc1 [nicotine]
- Placental transfer (freely-diffusible compounds) [6]: 30–40%
